Assay results from patent US10538521B2, “Pyrimidine derivative having antimalarial activity” (CARNA BIOSCIENCES, INC., priority 2016, dated 2020).

Tests used:
[1] = system: FCR3 strain, a drug sensitive strain of Plasmodium falciparum; assay: In vitro antimalarial assay (p-LDH, Malstat), FCR3 strain; assay type: cell-based; conditions: P. falciparum FCR3 (drug sensitive), 72 h culture, p-LDH readout, read-out: Antimalarial activity (IC50 value), Strain FCR3
Summary of the method: (§1)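 IC50 derived from concentration-response of parasite lactate dehydrogenase signal (Malstat reagent, NBT/PES formazan at 655 nm) after freeze-thaw lysis. Infected erythrocytes (hematocrit 2%, parasitaemia 0.5 or 1%) exposed 72 h to 12.5–0.0001 μM final compound under 3% O2-4% CO2-93% N2, FCR3 and K1 alike.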

[2] = system: K1 strain, a drug resistant strain of Plasmodium falciparum; assay: In vitro antimalarial assay (p-LDH, Malstat), K1 strain; assay type: cell-based; conditions: P. falciparum K1 (drug resistant), 72 h culture, p-LDH readout, read-out: Antimalarial activity (IC50 value), Strain K1
Summary of the method: as §1

Compound | IC50 [1] [µM] | IC50 [2] [µM]
COC1CCN(c2cc(Nc3ccn4ccnc4c3)nc(Nc3cc(C)cc(C)n3)n2)CC1 [Example 131, N2-(4,6-dimethylpyridin-2-yl)-N4-(imidazo[1,2-a]pyridin-7-yl)-6-(4-methoxypiperidin-1-yl)pyrimidine-2,4-diamine] | < 0.1 | < 0.1
Cc1cc(C)nc(Nc2nc(Nc3ccn4ccnc4c3)cc(N3CCC(N4CCOCC4)CC3)n2)c1 [Example 132, N2-(4,6-dimethylpyridin-2-yl)-N4-(imidazo[1,2-a]pyridin-7-yl)-6-(4-morpholinopiperidin-1-yl)pyrimidine-2,4-diamine] | < 0.1 | < 0.1
Cc1cc(C)nc(Nc2nc(Nc3ccn4ccnc4c3)cc(N3CCC(N4CCCCC4)CC3)n2)c1 [Example 133, 6-([1,4′-bipiperidin]-1′-yl)-N2-(4,6-dimethylpyridin-2-yl)-N4-(imidazo[1,2-a]pyridin-7-yl)pyrimidine-2,4-diamine] | < 0.1 | < 0.1
Cc1cc(C)nc(Nc2nc(Nc3ccn4ccnc4c3)cc(N3CCC(N(C)C)CC3)n2)c1 [Example 134, 6-(4-(dimethylamino)piperidin-1-yl)-N2-(4,6-dimethylpyridin-2-yl)-N4-(imidazo[1,2-a]pyridin-7-yl)pyrimidine-2,4-diamine] | < 0.1 | < 0.1
Cc1cc(C)nc(Nc2nc(Nc3ccn4ccnc4c3)cc(N3CCCC3)n2)c1 [Example 135, N2-(4,6-dimethylpyridin-2-yl)-N4-(imidazo[1,2-a]pyridin-7-yl)-6-(pyrrolidin-1-yl)pyrimidine-2,4-diamine] | < 0.1 | < 0.1
Cc1cc(C)nc(Nc2nc(Nc3ccn4ccnc4c3)cc(N3CCC(O)C3)n2)c1 (stereo not shown) [Example 136, 1-(2-((4,6-dimethylpyridin-2-yl)amino)-6-(imidazo[1,2-a]pyridin-7-ylamino)pyrimidin-4-yl)pyrrolidin-3-ol] | < 0.1 | < 0.1
Cc1cc(C)nc(Nc2nc(Nc3ccn4ccnc4c3)cc(N3CCC(N(C)C)C3)n2)c1 (stereo not shown) [Example 137, 6-(3-(dimethylamino)pyrrolidin-1-yl)-N2-(4,6-dimethylpyridin-2-yl)-N4-(imidazo[1,2-a]pyridin-7-yl)pyrimidine-2,4-diamine] | < 0.1 | < 0.1
Cc1cc(C)nc(Nc2nc(Nc3ccn4ccnc4c3)cc(N3CCC(F)(F)C3)n2)c1 [Example 138, 6-(3,3-difluoropyrrolidin-1-yl)-N2-(4,6-dimethylpyridin-2-yl)-N4-(imidazo[1,2-a]pyridin-7-yl)pyrimidine-2,4-diamine] | < 0.1 | 0.1 to 1
Cc1cc(C)nc(Nc2nc(Nc3ccn4ccnc4c3)cc(N3CC=CC3)n2)c1 [Example 139, 6-(2,5-dihydro-1H-pyrrol-1-yl)-N2-(4,6-dimethylpyridin-2-yl)-N4-(imidazo[1,2-a]pyridin-7-yl)pyrimidine-2,4-diamine] | < 0.1 | < 0.1
COC1CCN(c2cc(Nc3ccn4ccnc4c3)nc(Nc3cc(C)cc(C)n3)n2)C1 (stereo not shown) [Example 140, N2-(4,6-dimethylpyridin-2-yl)-N4-(imidazo[1,2-a]pyridin-7-yl)-6-(3-methoxypyrrolidin-1-yl)pyrimidine-2,4-diamine] | < 0.1 | < 0.1
Cc1cc(C2CC2)cc(Nc2nc(Nc3ccn4ccnc4c3)cc(N3CCCCC3)n2)n1 [Example 141, N2-(4-cyclopropyl-6-methylpyridin-2-yl)-N4-(imidazo[1,2-a]pyridin-7-yl)-6-(piperidin-1-yl)pyrimidine-2,4-diamine] | < 0.1 | 0.1 to 1
COc1cccc(Nc2nc(Nc3ccn4ccnc4c3)cc(N3CCCC3)n2)n1 [Example 143, N4-(imidazo[1,2-a]pyridin-7-yl)-N2-(6-methoxypyridin-2-yl)-6-(pyrrolidin-1-yl)pyrimidine-2,4-diamine] | 1 to 10 | 0.1 to 1
COc1cccc(Nc2nc(Nc3ccn4ccnc4c3)cc(N3CCCCC3)n2)n1 [Example 144, N4-(imidazo[1,2-a]pyridin-7-yl)-N2-(6-methoxypyridin-2-yl)-6-(piperidin-1-yl)pyrimidine-2,4-diamine] | 0.1 to 1 | 0.1 to 1
CCOc1ccnc(Nc2nc(Nc3ccn4ccnc4c3)cc(N3CCCC3)n2)c1 [Example 145, N2-(4-ethoxypyridin-2-yl)-N4-(imidazo[1,2-a]pyridin-7-yl)-6-(pyrrolidin-1-yl)pyrimidine-2,4-diamine] | < 0.1 | 0.1 to 1
Cc1cc(C)nc(Nc2nc(Nc3ccn4ccnc4c3)cc(N3CCC(C)C3)n2)c1 (stereo not shown) [Example 146, N2-(4,6-dimethylpyridin-2-yl)-N4-(imidazo[1,2-a]pyridin-7-yl)-6-(3-methylpyrrolidin-1-yl)pyrimidine-2,4-diamine] | < 0.1 | < 0.1
Cc1cc(C)nc(Nc2nc(Nc3ccn4ccnc4c3)cc(N3CCC(N4CCCC4)C3)n2)c1 (stereo not shown) [Example 148, 6-([1,3′-bipyrrolidin]-1′-yl)-N2-(4,6-dimethylpyridin-2-yl)-N4-(imidazo[1,2-a]pyridin-7-yl)pyrimidine-2,4-diamine] | < 0.1 | < 0.1
Cc1cc(C)nc(Nc2nc(Nc3ccn4ccnc4c3)cc(N3CCC(N4CCOCC4)C3)n2)c1 (stereo not shown) [Example 149, N2-(4,6-dimethylpyridin-2-yl)-N4-(imidazo[1,2-a]pyridin-7-yl)-6-(3-morpholinopyrrolidin-1-yl)pyrimidine-2,4-diamine] | < 0.1 | < 0.1
CCOc1cccc(Nc2nc(Nc3ccn4ccnc4c3)cc(N3CCCC3)n2)n1 [Example 150, N2-(6-ethoxypyridin-2-yl)-N4-(imidazo[1,2-a]pyridin-7-yl)-6-(pyrrolidin-1-yl)pyrimidine-2,4-diamine] | < 0.1 | 0.1 to 1
CCCOc1cccc(Nc2nc(Nc3ccn4ccnc4c3)cc(N3CCCC3)n2)n1 [Example 151, N4-(imidazo[1,2-a]pyridin-7-yl)-N2-(6-propoxypyridin-2-yl)-6-(pyrrolidin-1-yl)pyrimidine-2,4-diamine] | 0.1 to 1 | 0.1 to 1
COCCOc1cccc(Nc2nc(Nc3ccn4ccnc4c3)cc(N3CCCC3)n2)n1 [Example 152, N4-(imidazo[1,2-a]pyridin-7-yl)-N2-[6-(2-methoxyethoxy)pyridin-2-yl]-6-(pyrrolidin-1-yl)pyrimidine-2,4-diamine] | < 0.1 | < 0.1
CC(C)Oc1cccc(Nc2nc(Nc3ccn4ccnc4c3)cc(N3CCCC3)n2)n1 [Example 153, N4-(imidazo[1,2-a]pyridin-7-yl)-N2-(6-isopropoxypyridin-2-yl)-6-(pyrrolidin-1-yl)pyrimidine-2,4-diamine] | < 0.1 | < 0.1
c1cc(Nc2nc(Nc3ccn4ccnc4c3)cc(N3CCCC3)n2)nc(OCCN2CCOCC2)c1 [Example 154, N4-(imidazo[1,2-a]pyridin-7-yl)-N2-[6-(2-morpholinoethoxy)pyridin-2-yl]-6-(pyrrolidin-1-yl)pyrimidine-2,4-diamine] | < 0.1 | < 0.1
CN(C)CCOc1cccc(Nc2nc(Nc3ccn4ccnc4c3)cc(N3CCCC3)n2)n1 [Example 155, N2-{6-[2-(dimethylamino)ethoxy]pyridin-2-yl}-N4-(imidazo[1,2-a]pyridin-7-yl)-6-(pyrrolidin-1-yl)pyrimidine-2,4-diamine] | < 0.1 | < 0.1
